According to PMC5095920 (Biochemical Journal, 2016):

Biological target: T1, HemQ (Staphylococcus aureus, UniProt Q2YS77)
T1 sequence (Q2YS77 1-250): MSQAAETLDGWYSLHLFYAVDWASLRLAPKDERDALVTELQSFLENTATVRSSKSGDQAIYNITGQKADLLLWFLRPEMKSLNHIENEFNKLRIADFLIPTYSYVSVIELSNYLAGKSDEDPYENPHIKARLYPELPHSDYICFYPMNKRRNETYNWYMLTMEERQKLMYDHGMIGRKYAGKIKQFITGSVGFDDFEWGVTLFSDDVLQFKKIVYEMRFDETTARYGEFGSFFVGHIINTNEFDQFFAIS
Assay: co-purification on affinity column, absorption spectroscopy
Format: binding
Settings: porphyrin added before affinity chromatography, pH 8.0

| Structure (SMILES) | co-purification on affinity column, absorption spectroscopy |
| --- | --- |
| CC1=C(CCC(=O)O)c2cc3nc(cc4[nH]c(cc5[nH]c(cc1n2)c(C)c5CCC(=O)O)c(CCC(=O)O)c4C)C(CCC(=O)O)=C3C [coproporphyrin III] | HemQ that was loaded with bound haem, protoporphyrin IX, and coproporphyrin III |
| C=CC1=C(C)c2cc3[nH]c(cc4nc(cc5[nH]c(cc1n2)c(C)c5CCC(=O)O)C(CCC(=O)O)=C4C)c(C)c3C=C [protoporphyrin IX] | HemQ that was loaded with bound haem, protoporphyrin IX, and coproporphyrin III |
